Reference: ChEMBL document CHEMBL1201862, “PubChem BioAssay data set” (2004)
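Compound exposure: 48 hours, 5 concentrations, 96-well plates. At the GI50, growth is halved.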 Calls of active or inactive are those of the source. Rule as the data show it: active = GI50 up to about 1.1 µM and inactive = higher.

Experiments:
Experiment in all cases: NCI anticancer screen, dose series, 48 h
HCT-116 = tested on: HCT-116
NCI-H23 = tested on: NCI-H23
MDA-MB-231 = tested on: MDA-MB-231
SW-620 = tested on: SW-620
MDA-N = tested on: MDA-N
T47D = tested on: T47D
PC-3 = tested on: PC-3
HCT-15 = tested on: HCT-15
CCRF-CEM = tested on: CCRF-CEM
SN12C = tested on: SN12C
K562 = tested on: K562
Hs-578T = tested on: Hs-578T
SK-MEL-28 = tested on: SK-MEL-28
SR = tested on: SR
SF-268 = tested on: SF-268
HOP-62 = tested on: HOP-62
OVCAR-5 = tested on: OVCAR-5
SK-MEL-2 = tested on: SK-MEL-2
RPMI-8226 = tested on: RPMI-8226
Malme-3M = tested on: Malme-3M

SMILES	GI50 (HCT-116)	GI50 (NCI-H23)	GI50 (MDA-MB-231)	GI50 (SW-620)	GI50 (MDA-N)	GI50 (T47D)	GI50 (PC-3)	GI50 (HCT-15) [µM]	GI50 (CCRF-CEM)	GI50 (SN12C)	GI50 (K562)	GI50 (Hs-578T)	GI50 (SK-MEL-28)	GI50 (SR)	GI50 (SF-268)	GI50 (HOP-62)	GI50 (OVCAR-5)	GI50 (SK-MEL-2)	GI50 (RPMI-8226)	GI50 (Malme-3M)
Nc1ccn(C2CC3OCC3O2)c(=O)n1 (centres undefined)	> 100 µM (inactive)	> 100 µM (inactive)	> 100 µM (inactive)	> 100 µM (inactive)	> 100 µM (inactive)	> 100 µM (inactive)	> 100 µM (inactive)	> 100	> 100 µM (inactive)	> 100 µM (inactive)	> 100 µM (inactive)	> 100 µM (inactive)	> 100 µM (inactive)	> 100 µM (inactive)	> 100 µM (inactive)	> 100 µM (inactive)	> 100 µM (inactive)	> 100 µM (inactive)	> 100 µM (inactive)	
Cc1ccc(C2=NOC(=O)[C@@H]3CCCC[C@@H]23)cc1	> 100 µM (inactive)	> 100 µM (inactive)	75.3 µM (inactive)	> 100 µM (inactive)	> 100 µM (inactive)	76.4 µM (inactive)	> 100 µM (inactive)	> 100	> 100 µM (inactive)	> 100 µM (inactive)	> 100 µM (inactive)	> 100 µM (inactive)	> 100 µM (inactive)	> 100 µM (inactive)	> 100 µM (inactive)	> 100 µM (inactive)	> 100 µM (inactive)		> 100 µM (inactive)	> 100 µM (inactive)
CC1(c2ccc(Cl)cc2)c2ccccc2C(=O)N1CCCN1C(=O)c2ccccc2C1=O (centres undefined)	13.6 µM (inactive)	25.4 µM (inactive)	> 100 µM (inactive)	56.8 µM (inactive)	58.7 µM (inactive)	21.3 µM (inactive)	83 µM (inactive)	34	45.1 µM (inactive)	> 100 µM (inactive)	50.5 µM (inactive)	35.4 µM (inactive)	69.5 µM (inactive)	34.6 µM (inactive)	40.6 µM (inactive)	49.7 µM (inactive)		20.3 µM (inactive)	33.3 µM (inactive)	
O=C(NP(=O)(N1CC1)N1CC1)c1cc(I)ccc1I [DIIODBENZOTEPH]	40.3 µM (inactive)	10.9 µM (inactive)	> 100 µM (inactive)	67.5 µM (inactive)	> 73.6 µM (inactive)	22.9 µM (inactive)	> 67.3 µM (inactive)	69.3	4.86 µM (inactive)	26.8 µM (inactive)	59 µM (inactive)	98.9 µM (inactive)	> 95.3 µM (inactive)		27.3 µM (inactive)	19.1 µM (inactive)	> 84.1 µM (inactive)	61 µM (inactive)	52.7 µM (inactive)	50.4 µM (inactive)
COc1ccc(Nc2nc3ccccc3nc2C(=O)O)cc1	58.6 µM (inactive)	66.7 µM (inactive)	> 100 µM (inactive)	37.6 µM (inactive)	92.9 µM (inactive)	53.6 µM (inactive)	> 100 µM (inactive)	36.1	44 µM (inactive)	80.2 µM (inactive)	63.4 µM (inactive)	16 µM (inactive)	68.4 µM (inactive)	48.6 µM (inactive)	61.1 µM (inactive)	> 100 µM (inactive)	> 100 µM (inactive)	> 100 µM (inactive)		> 100 µM (inactive)
O=P1(N(CCCl)CCCl)Oc2ccc(Cl)cc2C(C(Cl)(Cl)Cl)c2cc(Cl)ccc2O1 (centres undefined)	4.55 µM (inactive)	12.8 µM (inactive)	18.6 µM (inactive)	11.2 µM (inactive)	16.2 µM (inactive)	20 µM (inactive)	4.38 µM (inactive)	9.57	5.37 µM (inactive)	16.6 µM (inactive)	3.72 µM (inactive)	13.6 µM (inactive)	35.2 µM (inactive)	3.94 µM (inactive)	28.2 µM (inactive)	11.8 µM (inactive)	32.8 µM (inactive)	18.5 µM (inactive)	3.77 µM (inactive)	
COc1ccc(Nc2nc3ccccc3nc2C(=O)O)cc1OC	> 100 µM (inactive)	80.4 µM (inactive)	56.2 µM (inactive)	> 100 µM (inactive)	> 100 µM (inactive)	33.8 µM (inactive)	> 100 µM (inactive)	50.7	47.3 µM (inactive)	48.1 µM (inactive)	> 100 µM (inactive)	> 100 µM (inactive)	50.2 µM (inactive)	> 100 µM (inactive)	41 µM (inactive)	34.4 µM (inactive)	> 100 µM (inactive)		65.8 µM (inactive)	34 µM (inactive)
COc1ccc(/C=C2\CC3C4CC=C5C[C@@H](O)CC[C@]5(C)C4CC[C@]3(C)C2=O)cc1OC (some centres undefined)	24 µM (inactive)	42.6 µM (inactive)	25.8 µM (inactive)	65.6 µM (inactive)	42.2 µM (inactive)	8.28 µM (inactive)	25.9 µM (inactive)	34	20.7 µM (inactive)	23.1 µM (inactive)	12.5 µM (inactive)	36.5 µM (inactive)	81.1 µM (inactive)		64.7 µM (inactive)	44 µM (inactive)	43.5 µM (inactive)	24.2 µM (inactive)	10.2 µM (inactive)	27.2 µM (inactive)
CC(=O)C1(O)Cc2c(O)c3c(c(O)c2C(OC2CC(N)C(O)C(C)O2)C1)C(=O)c1ccccc1C3=O (centres undefined)	0.0279 µM (active)	0.0227 µM (active)	0.252 µM (active)	0.0221 µM (active)	0.112 µM (active)	0.0497 µM (active)	0.247 µM (active)	0.0277	0.01 µM (active)	0.0207 µM (active)	0.083 µM (active)	0.254 µM (active)		0.0292 µM (active)	0.0215 µM (active)	0.0141 µM (active)	0.141 µM (active)	0.415 µM (active)		0.01 µM (active)
CC1(C)C(C#N)C1C1=C(N2CCOCC2)[C@]2(C)C(OC(=O)c3ccccc3)CC[C@@H]2C1 (some centres undefined)	33.7 µM (inactive)	> 100 µM (inactive)	> 100 µM (inactive)	> 100 µM (inactive)	> 100 µM (inactive)	35.5 µM (inactive)	> 100 µM (inactive)	> 100	31 µM (inactive)	> 100 µM (inactive)	38.5 µM (inactive)	> 100 µM (inactive)	> 100 µM (inactive)	61.5 µM (inactive)	> 100 µM (inactive)	> 100 µM (inactive)	> 100 µM (inactive)			> 100 µM (inactive)
O=C1/C(=C/c2ccc(Cl)cc2)Oc2cc(O)ccc21 [6-HYDROXY-4'-CHLORO AURONE]	30.5 µM (inactive)	36.2 µM (inactive)	34.6 µM (inactive)	44.6 µM (inactive)	30.2 µM (inactive)	37.1 µM (inactive)	30.2 µM (inactive)	32.6	20.2 µM (inactive)	29.8 µM (inactive)	19.1 µM (inactive)	14.7 µM (inactive)	59.6 µM (inactive)	20.2 µM (inactive)	52.8 µM (inactive)	32.7 µM (inactive)			30.6 µM (inactive)	
